Laboratory results from PubChem BioAssay (NCI).
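Exposure lasted 48 hours, with cells grown in 96-well plates and compounds tested at five concentrations. Abbreviation: GI50, concentration required for 50% inhibition of growth. TGI is the concentration that stops growth completely.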

Experiments:
Experiment in all cases: NCI anticancer screen, dose series, 48 h
786-0 renal = tested on: 786-0 renal
A498 renal = tested on: A498 renal
A549 NSCLC = tested on: A549 NSCLC
ACHN renal = tested on: ACHN renal
BT-549 breast = tested on: BT-549 breast
CAKI-1 renal = tested on: CAKI-1 renal
CCRF-CEM leukemia = tested on: CCRF-CEM leukemia
COLO 205 colon = tested on: COLO 205 colon
DU-145 prostate = tested on: DU-145 prostate
EKVX NSCLC = tested on: EKVX NSCLC
HCC-2998 colon = tested on: HCC-2998 colon
HCT-116 colon = tested on: HCT-116 colon
HCT-15 colon = tested on: HCT-15 colon
HL-60(TB) leukemia = tested on: HL-60(TB) leukemia
HOP-62 NSCLC = tested on: HOP-62 NSCLC
HOP-92 NSCLC = tested on: HOP-92 NSCLC
HS 578T breast = tested on: HS 578T breast
HT29 colon = tested on: HT29 colon
IGROV1 ovarian = tested on: IGROV1 ovarian
K-562 leukemia = tested on: K-562 leukemia
KM12 colon = tested on: KM12 colon
M14 melanoma = tested on: M14 melanoma
MALME-3M melanoma = tested on: MALME-3M melanoma
MCF7 breast = tested on: MCF7 breast
MDA-MB-231 breast = tested on: MDA-MB-231 breast
MDA-MB-435 = tested on: MDA-MB-435
MOLT-4 leukemia = tested on: MOLT-4 leukemia
NCI-H226 lung = tested on: NCI-H226 lung
NCI-H460 lung = tested on: NCI-H460 lung
NCI-H522 lung = tested on: NCI-H522 lung
NCI/ADR-RES ovarian = tested on: NCI/ADR-RES ovarian
OVCAR-3 ovarian = tested on: OVCAR-3 ovarian
OVCAR-4 ovarian = tested on: OVCAR-4 ovarian
OVCAR-5 ovarian = tested on: OVCAR-5 ovarian
OVCAR-8 ovarian = tested on: OVCAR-8 ovarian
PC-3 prostate = tested on: PC-3 prostate
RPMI-8226 leukemia = tested on: RPMI-8226 leukemia
RXF 393 renal = tested on: RXF 393 renal
SF-268 CNS = tested on: SF-268 CNS
SF-295 CNS = tested on: SF-295 CNS
SF-539 CNS = tested on: SF-539 CNS
SK-MEL-2 melanoma = tested on: SK-MEL-2 melanoma
SK-MEL-28 melanoma = tested on: SK-MEL-28 melanoma
SK-MEL-5 melanoma = tested on: SK-MEL-5 melanoma
SK-OV-3 ovarian = tested on: SK-OV-3 ovarian
SN12C renal = tested on: SN12C renal
SNB-19 CNS = tested on: SNB-19 CNS
SNB-75 CNS = tested on: SNB-75 CNS
SR leukemia = tested on: SR leukemia
SW-620 colon = tested on: SW-620 colon
T-47D breast = tested on: T-47D breast
TK-10 renal = tested on: TK-10 renal
U251 CNS = tested on: U251 CNS
UACC-257 melanoma = tested on: UACC-257 melanoma
UACC-62 melanoma = tested on: UACC-62 melanoma
UO-31 renal = tested on: UO-31 renal
LOX IMVI melanoma = tested on: LOX IMVI melanoma
NCI-H23 lung = tested on: NCI-H23 lung

## C=C(C)[C@@H]1CC[C@]2(COC)CC[C@]3(C)[C@H](CC[C@@H]4[C@@]5(C)CCCNC(C)(C)[C@@H]5CC[C@]43C)[C@@H]12
786-0 renal
  GI50: 1750 nM
  TGI: 3480 nM
A498 renal
  GI50: 1660 nM
  TGI: 3110 nM
A549 NSCLC
  GI50: 1600 nM
  TGI: 3160 nM
ACHN renal
  GI50: 1690 nM
  TGI: 3080 nM
BT-549 breast
  GI50: 1750 nM
  TGI: 3210 nM
CAKI-1 renal
  GI50: 1590 nM
  TGI: 3070 nM
CCRF-CEM leukemia
  GI50: 1240 nM
  TGI: 2990 nM
COLO 205 colon
  GI50: 1490 nM
  TGI: 3220 nM
DU-145 prostate
  GI50: 1770 nM
  TGI: 3210 nM
EKVX NSCLC
  GI50: 1630 nM
  TGI: 3140 nM
HCC-2998 colon
  GI50: 1260 nM
  TGI: 2670 nM
HCT-116 colon
  GI50: 1130 nM
  TGI: 2590 nM
HCT-15 colon
  GI50: 1430 nM
  TGI: 2920 nM
HL-60(TB) leukemia
  GI50: 1330 nM
  TGI: 3510 nM
HOP-62 NSCLC
  GI50: 1950 nM
  TGI: 3900 nM
HOP-92 NSCLC
  GI50: 1150 nM
  TGI: 2470 nM
HS 578T breast
  GI50: 2530 nM
  TGI: 5570 nM
HT29 colon
  GI50: 562 nM
  TGI: 2090 nM
IGROV1 ovarian
  GI50: 1560 nM
  TGI: 3010 nM
K-562 leukemia
  GI50: 323 nM
  TGI: 1660 nM
KM12 colon
  GI50: 1820 nM
  TGI: 3650 nM
M14 melanoma
  GI50: 1630 nM
  TGI: 3340 nM
MALME-3M melanoma
  GI50: 1420 nM
  TGI: 3070 nM
MCF7 breast
  GI50: 301 nM
  TGI: 2240 nM
MDA-MB-231 breast
  GI50: 1800 nM
  TGI: 3380 nM
MDA-MB-435
  GI50: 1610 nM
  TGI: 3090 nM
MOLT-4 leukemia
  GI50: 1250 nM
  TGI: 3490 nM
NCI-H226 lung
  GI50: 1930 nM
  TGI: 3930 nM
NCI-H460 lung
  GI50: 1640 nM
  TGI: 3500 nM
NCI-H522 lung
  GI50: 1730 nM
  TGI: 3420 nM
NCI/ADR-RES ovarian
  GI50: 1680 nM
  TGI: 3400 nM
OVCAR-3 ovarian
  GI50: 1900 nM
  TGI: 3730 nM
OVCAR-4 ovarian
  GI50: 1540 nM
  TGI: 3000 nM
OVCAR-5 ovarian
  GI50: 1660 nM
  TGI: 3110 nM
OVCAR-8 ovarian
  GI50: 1910 nM
  TGI: 4000 nM
PC-3 prostate
  GI50: 1260 nM
  TGI: 2520 nM
RPMI-8226 leukemia
  GI50: 1170 nM
  TGI: 3430 nM
RXF 393 renal
  GI50: 1550 nM
  TGI: 2940 nM
SF-268 CNS
  GI50: 1950 nM
  TGI: 3850 nM
SF-295 CNS
  GI50: 1780 nM
  TGI: 3240 nM
SF-539 CNS
  GI50: 1570 nM
  TGI: 3020 nM
SK-MEL-2 melanoma
  GI50: 1840 nM
  TGI: 3520 nM
SK-MEL-28 melanoma
  GI50: 1620 nM
  TGI: 2990 nM
SK-MEL-5 melanoma
  GI50: 1590 nM
  TGI: 3000 nM
SK-OV-3 ovarian
  GI50: 1790 nM
  TGI: 3320 nM
SN12C renal
  GI50: 1570 nM
  TGI: 3090 nM
SNB-19 CNS
  GI50: 1710 nM
  TGI: 3130 nM
SNB-75 CNS
  GI50: 1750 nM
  TGI: 3920 nM
SR leukemia
  GI50: 481 nM
  TGI: 2510 nM
SW-620 colon
  GI50: 1770 nM
  TGI: 3710 nM
T-47D breast
  GI50: 1180 nM
  TGI: 2990 nM
TK-10 renal
  GI50: 1910 nM
  TGI: 3520 nM
U251 CNS
  GI50: 1550 nM
  TGI: 3180 nM
UACC-257 melanoma
  GI50: 1930 nM
  TGI: 3760 nM
UACC-62 melanoma
  GI50: 1680 nM
  TGI: 3110 nM
UO-31 renal
  GI50: 1450 nM
  TGI: 2780 nM

## O=[N+]([O-])c1ccc(-c2nnc(SCc3ccc(O)c4ncccc34)o2)cc1
786-0 renal
  GI50: 674 nM
  TGI: > 100000 nM
A498 renal
  GI50: 2520 nM
  TGI: > 30400 nM
A549 NSCLC
  GI50: 378 nM
  TGI: > 100000 nM
ACHN renal
  GI50: 360 nM
  TGI: > 100000 nM
BT-549 breast
  GI50: 237 nM
  TGI: > 100000 nM
CAKI-1 renal
  GI50: 561 nM
  TGI: > 100000 nM
CCRF-CEM leukemia
  GI50: 451 nM
  TGI: > 100000 nM
COLO 205 colon
  GI50: 4110 nM
  TGI: > 84500 nM
DU-145 prostate
  GI50: 467 nM
  TGI: > 100000 nM
EKVX NSCLC
  GI50: 746 nM
  TGI: > 100000 nM
HCC-2998 colon
  GI50: 749 nM
  TGI: > 100000 nM
HCT-116 colon
  GI50: 189 nM
  TGI: > 100000 nM
HCT-15 colon
  GI50: 333 nM
  TGI: > 100000 nM
HL-60(TB) leukemia
  GI50: 425 nM
HOP-62 NSCLC
  GI50: 590 nM
  TGI: > 100000 nM
HS 578T breast
  GI50: 417 nM
  TGI: > 100000 nM
HT29 colon
  GI50: 4840 nM
  TGI: > 100000 nM
IGROV1 ovarian
  GI50: 649 nM
  TGI: > 100000 nM
K-562 leukemia
  GI50: 363 nM
  TGI: > 100000 nM
KM12 colon
  GI50: 572 nM
  TGI: > 100000 nM
LOX IMVI melanoma
  GI50: 334 nM
  TGI: > 39000 nM
M14 melanoma
  GI50: 455 nM
  TGI: 7560 nM
MALME-3M melanoma
  GI50: 569 nM
  TGI: > 100000 nM
MCF7 breast
  GI50: 224 nM
  TGI: > 100000 nM
MDA-MB-231 breast
  GI50: 625 nM
  TGI: > 100000 nM
MDA-MB-435
  GI50: 331 nM
  TGI: > 100000 nM
MOLT-4 leukemia
  GI50: 508 nM
  TGI: > 100000 nM
NCI-H226 lung
  GI50: 3520 nM
  TGI: > 100000 nM
NCI-H23 lung
  GI50: 407 nM
  TGI: > 100000 nM
NCI-H460 lung
  GI50: 260 nM
  TGI: > 62700 nM
NCI-H522 lung
  GI50: 381 nM
  TGI: > 100000 nM
NCI/ADR-RES ovarian
  GI50: 551 nM
  TGI: > 100000 nM
OVCAR-4 ovarian
  GI50: 1010 nM
  TGI: > 100000 nM
OVCAR-5 ovarian
  GI50: 3710 nM
  TGI: > 100000 nM
OVCAR-8 ovarian
  GI50: 310 nM
  TGI: > 100000 nM
PC-3 prostate
  GI50: 358 nM
  TGI: > 100000 nM
RPMI-8226 leukemia
  GI50: 402 nM
  TGI: > 100000 nM
RXF 393 renal
  GI50: 732 nM
  TGI: > 100000 nM
SF-268 CNS
  GI50: 608 nM
  TGI: > 100000 nM
SF-295 CNS
  GI50: 315 nM
  TGI: > 100000 nM
SF-539 CNS
  GI50: 877 nM
  TGI: > 100000 nM
SK-MEL-2 melanoma
  GI50: 390 nM
SK-MEL-28 melanoma
  GI50: 1120 nM
  TGI: > 100000 nM
SK-MEL-5 melanoma
  GI50: 357 nM
  TGI: > 30600 nM
SK-OV-3 ovarian
  GI50: 379 nM
  TGI: 3920 nM
SN12C renal
  GI50: 326 nM
  TGI: > 100000 nM
SNB-19 CNS
  GI50: 351 nM
  TGI: > 100000 nM
SNB-75 CNS
  GI50: 386 nM
  TGI: > 100000 nM
SR leukemia
  GI50: 424 nM
  TGI: > 100000 nM
SW-620 colon
  GI50: 547 nM
  TGI: > 100000 nM
T-47D breast
  GI50: 923 nM
  TGI: 69000 nM
TK-10 renal
  GI50: 785 nM
  TGI: > 100000 nM
U251 CNS
  GI50: 181 nM
  TGI: > 100000 nM
UACC-257 melanoma
  GI50: 511 nM
  TGI: 27500 nM
UACC-62 melanoma
  GI50: 810 nM
  TGI: 12600 nM
UO-31 renal
  GI50: 347 nM
  TGI: > 53000 nM
